Measurements: PubChem BioAssay (NCI)
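The compound was tested at five concentrations on cells cultured in 96-well plates, with a 48-hour exposure period. Abbreviation: GI50, concentration required for 50% inhibition of growth. Definition used: TGI = concentration required for complete inhibition of growth.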

Tests used:
Test in all cases: inhibition of tumour cell growth, NCI panel, 48 h
786-0 renal = tested on: 786-0 renal
A498 renal = tested on: A498 renal
A549 NSCLC = tested on: A549 NSCLC
ACHN renal = tested on: ACHN renal
BT-549 breast = tested on: BT-549 breast
CAKI-1 renal = tested on: CAKI-1 renal
CCRF-CEM leukemia = tested on: CCRF-CEM leukemia
COLO 205 colon = tested on: COLO 205 colon
DU-145 prostate = tested on: DU-145 prostate
EKVX NSCLC = tested on: EKVX NSCLC
HCC-2998 colon = tested on: HCC-2998 colon
HCT-116 colon = tested on: HCT-116 colon
HCT-15 colon = tested on: HCT-15 colon
HL-60(TB) leukemia = tested on: HL-60(TB) leukemia
HOP-62 NSCLC = tested on: HOP-62 NSCLC
HOP-92 NSCLC = tested on: HOP-92 NSCLC
HS 578T breast = tested on: HS 578T breast
HT29 colon = tested on: HT29 colon
IGROV1 ovarian = tested on: IGROV1 ovarian
K-562 leukemia = tested on: K-562 leukemia
KM12 colon = tested on: KM12 colon
LOX IMVI melanoma = tested on: LOX IMVI melanoma
M14 melanoma = tested on: M14 melanoma
MALME-3M melanoma = tested on: MALME-3M melanoma
MCF7 breast = tested on: MCF7 breast
MDA-MB-231 breast = tested on: MDA-MB-231 breast
MDA-MB-435 = tested on: MDA-MB-435
MDA-MB-468 breast = tested on: MDA-MB-468 breast
MOLT-4 leukemia = tested on: MOLT-4 leukemia

COc1cccc(/C=C/C(=O)c2ccc(OC)c(S(N)(=O)=O)c2)c1 was tested, and the GI50 (786-0 renal) was 2900 nM, the TGI (786-0 renal) was 11 µM and the GI50 (A498 renal) was 14.3 µM. It also gave a TGI (A498 renal) of 28 µM, a GI50 (A549 NSCLC) of 2640 nM and a TGI (A549 NSCLC) of 11.5 µM. For the same molecule, the GI50 (ACHN renal) was 1850 nM, the TGI (ACHN renal) was 3.7 µM and the GI50 (BT-549 breast) was 2520 nM. For the same molecule, the TGI (BT-549 breast) was 8.85 µM, the GI50 (CAKI-1 renal) was 4.16 µM and the TGI (CAKI-1 renal) was 16.1 µM. It also gave a GI50 (CCRF-CEM leukemia) of 2510 nM, a TGI (CCRF-CEM leukemia) of 6.23 µM and a GI50 (COLO 205 colon) of 2930 nM. For the same molecule, the TGI (COLO 205 colon) was 11 µM, the GI50 (DU-145 prostate) was 5.73 µM and the TGI (DU-145 prostate) was 18.1 µM. The GI50 (EKVX NSCLC) was 8.05 µM, the TGI (EKVX NSCLC) was 20.9 µM and the GI50 (HCC-2998 colon) was 2880 nM. The TGI (HCC-2998 colon) was 12.1 µM, the GI50 (HCT-116 colon) was 1590 nM and the TGI (HCT-116 colon) was 3.31 µM. For the same molecule, the GI50 (HCT-15 colon) was 1270 nM, the TGI (HCT-15 colon) was 3.34 µM and the GI50 (HL-60(TB) leukemia) was 1880 nM. For the same molecule, the TGI (HL-60(TB) leukemia) was 5.18 µM, the GI50 (HOP-62 NSCLC) was 2700 nM and the TGI (HOP-62 NSCLC) was 10.2 µM. It also gave a GI50 (HOP-92 NSCLC) of 6.37 µM, a TGI (HOP-92 NSCLC) of 20.2 µM and a GI50 (HS 578T breast) of 15.5 µM. It also gave a TGI (HS 578T breast) of 50.6 µM, a GI50 (HT29 colon) of 1910 nM and a TGI (HT29 colon) of 4.05 µM. The GI50 (IGROV1 ovarian) was 2980 nM, the TGI (IGROV1 ovarian) was 12.5 µM and the GI50 (K-562 leukemia) was 2120 nM. For the same molecule, the TGI (K-562 leukemia) was 6.4 µM, the GI50 (KM12 colon) was 2120 nM and the TGI (KM12 colon) was 5.11 µM. It also gave a GI50 (LOX IMVI melanoma) of 1640 nM, a TGI (LOX IMVI melanoma) of 3.47 µM and a GI50 (M14 melanoma) of 4.42 µM. The TGI (M14 melanoma) was 17.7 µM, the GI50 (MALME-3M melanoma) was 12.4 µM and the TGI (MALME-3M melanoma) was 25.1 µM. The GI50 (MCF7 breast) was 2870 nM, the TGI (MCF7 breast) was 12.5 µM and the GI50 (MDA-MB-231 breast) was 3.8 µM. The TGI (MDA-MB-231 breast) was 13.6 µM, the GI50 (MDA-MB-435) was 4.66 µM and the TGI (MDA-MB-435) was 16.5 µM. For the same molecule, the GI50 (MDA-MB-468 breast) was 1990 nM, the TGI (MDA-MB-468 breast) was 7.17 µM and the GI50 (MOLT-4 leukemia) was 2120 nM. For the same molecule, the TGI (MOLT-4 leukemia) was 5.16 µM.
